Holding throughout (type): cell-based
Data set [1] concerns HIV-1. Description: Adsorption assay (RT activity in supernatant). To be noted: 10 µM, compound and virions added to MT-4 cells simultaneously, washed out after 2 h, RT activity 5 days after infection. The protocol: (§1) To address virion binding and entry in a competitive setting, we performed an adsorption assay where test compounds and virions were added to MT-4 cells simultaneously and were washed out after 2 h of incubation. In parallel, we performed a replication assay where MT-4 cells were infected with HIV-1 and the tested compounds were added 1 h later. In both cases, the infection was evaluated by measuring reverse transcriptase activity in a cell-free supernatant 5 days after the infection (Fig. 3). As controls, PBS (phosphate-buffered saline) and inhibitors of different HIV-1 life-cycle steps were used: AMD (AMD3100), an inhibitor of gp120 attachment to CXCR4 receptors of the target cell, thus preventing HIV-1 adsorption and entry; AZT (azidothymidine), an inhibitor of reverse transcriptase; and RAL (raltegravir), an integrase inhibitor.
(§2) MT-4 cells were seeded in 80 µl of the Roswell Park Memorial Institute (RPMI) medium in the amount of 2 × 10^5 cells per well of a 96-well plate, and 10 µl of the virus stock were immediately added with the final multiplicity of infection (MOI) of 0.05. For a replication assay, the infected cells were incubated at 37 °C for 1 h before the addition of compounds being tested (10 µM final concentration) and subsequently cultivated at 37 °C for another 5 days. For an adsorption test, by contrast, the compounds (10 µM final concentration) were added simultaneously with the virus, and after 2 h of incubation, the cells were washed three times with PBS to remove the compounds and unbound virions; after the addition of 100 µl of the RPMI medium, the cells were cultivated at 37 °C for 5 days. Five days post-infection, aliquots of virus-containing cell-free supernatants were harvested and analysed by reverse transcriptase (RT) assay (described in the Supplementary Information). The experiments were performed as biological replicates where the sample size for each condition was n = 3.
(§3) RT assay. The reverse transcriptase (RT) activity in a cell-free supernatant was assessed by an α-32P RT assay. Briefly, the RT activity in the culture medium, which corresponded to the amount of HIV-1, was used to produce a DNA copy of an RNA template by extending a complementary oligo dT DNA primer with radiolabelled nucleotides. A reaction mixture containing 50 mM Tris-HCl pH 7.8, 75 mM KCl, 2 mM DTT, 5 mM MgCl2 and 0.5% NP-40 (all Sigma-Aldrich), 5 µg per ml of poly (rA)-poly (dT) (The Midlan Certified Reagent Company) with 1 µl 10-mCi/ml [α-32P]dTTP (American Radiolabeled Chemicals) per ml, and the tested sample was incubated at 37°C for two hours, after which 10 µl were spotted on DEAE blotting paper (PerkinElmer) and air-dried. After five washes with SSC buffer (0.15 M NaCl, 0.015 M sodium citrate) and three additional washes with 85% ethanol, the blotting paper was exposed to Phosphoscreen overnight, which was scanned on a Typhoon 9410 Phosphorimager instrument (GE Healthcare). The intensity of the dots was analysed by the ImageQuant software (GE Healthcare).

Another data set is described as follows: in vitro. To be noted: human. The text has this: (§4) Based on a facile [2 + 2 + 2]‐cycloisomerization strategy, a robust three‐step synthetic entry into a novel family of helical extended diquats (helquats) was developed. After a straightforward Knoevenagel condensation of the respective helquat parent with different aldehydes (Fig. 2A), more than 500 helquat-based compounds were synthesized and screened for anti-HIV-1 activity in an assay based on the inhibition of the virus-induced cytopathic effect in MT-4 cells, evaluated after 5 days post-infection by an XTT assay. In parallel with the screening, the XTT assay was also used to determine the cytotoxicity of all compounds (Fig. 2B; for more information on the synthesis and characterization of the compounds, see the Supplementary Information). […]
(§5) XTT screening. MT-4 cells were seeded in 80 µl of the RPMI without Phenol Red in the amount of 3x10^4 cells per well of a 96-well plate. 10 µl of tested compounds (500 µM at 5% DMSO) or controls (5% DMSO at PBS, AZT 1mM, SQV 100 µM) were added to the cells; after one-hour incubation at 37 °C, HIV-1 (NL4-3 strain) was added with MOI = 0.05 and the infected cells were cultivated for five days.
The viability of the cells was measured by the XTT cell viability and proliferation assay. Briefly, 50 µl of the XTT solution with the addition of PMS (both VWR) was added to the cultivation media and incubated in a humidified incubator maintained at 37 °C with 5% CO2 for four hours, after which absorbance at 560 nm was measured on a VICTOR plate reader (PerkinElmer).
The cytotoxicity of the tested compounds was evaluated separately without virus addition and analysed by the same assay.
(§6) For compounds selected as hits in the initial screening, the effective concentration that inhibits 50% of the viral activity (EC50) and the cytotoxic concentration that reduces the MT -4 cell viability by 50% (CC50) were determined. Viral activity was evaluated after five days as an HIV-1-induced cytopathic effect quantified by the XTT assay. Selected hits were tested at two-fold serial dilutions from 50 µM concentration, and the drug concentrations required to reduce the viral cytopathic effect by 50% (EC 50) as well as the drug concentrations that reduced MT-4 cell viability by 50% (CC50) were calculated by nonlinear regression using GraphPad Prism v.8.0.0 (GraphPad Software).

The subject of the next data set is HIV-1 (NL4-3 strain). Description: CPE-based antiviral assay in HIV-1-infected MT-4 cells (XTT). To be noted: Human immunodeficiency virus 1, NL43, MT4, 120 h, cytopathic effect-based assay, MT-4 cells infected by HIV-1 (NL4-3 strain), 5 days post-infection.
Description: as §4, §5
The viability of the cells was measured by the XTT cell viability and proliferation assay. Briefly, 50 µl of the XTT solution with the addition of PMS (both VWR) was added to the cultivation media and incubated in a humidified incubator maintained at 37 °C with 5% CO2 for four hours, after which absorbance at 560 nm was measured on a VICTOR plate reader (PerkinElmer). […]
as §6
(Tetrazolium dyes change colour on reduction, which living cells bring about.)

Data set [2] relates to HIV-1. Description: Replication assay (RT activity in supernatant). To be noted: 10 µM, compound added 1 h after infection of MT-4 cells, RT activity 5 days after infection. As to the method: as §1, §2, §3

pEC50: −log10 of the molar value.

Consider `Cc1c(C)c2c(c3c1CC[n+]1ccc(/C=C/c4c[nH]c5ccc(Br)cc45)cc1-3)-c1cc(/C=C/c3c[nH]c4ccc(Br)cc34)cc[n+]1CC2` [Compound 17], for which the “effect on virus adsorption” value with HIV-1 [1] is listed as “inhibited neither adsorption nor replication, or their effect was weak”. Also, the CC50 (in general, the concentration at which the toxic effect on the cells reaches its halfway point) at 5 days in the data set “in vitro” is above 50 µM. The pEC50 – broadly, the EC50 on a negative log10 scale, so that one unit is a factor of ten – in the data set with HIV-1 (NL4-3 strain) was 5.52. The “effect on viral replication” value with HIV-1 [2] is recorded as “inhibited neither adsorption nor replication, or their effect was weak”.
In the case of `C(=C\c1cccc2[n+]1CCc1ccc3c(c1-2)-c1cccc(/C=C/c2ccc(C(=C(c4ccccc4)c4ccccc4)c4ccccc4)cc2)[n+]1CC3)/c1ccc(C(=C(c2ccccc2)c2ccccc2)c2ccccc2)cc1` [Compound 4], the “effect on virus adsorption” value with HIV-1 [1] is reported as “inhibited adsorption”. This compound showed a CC50 at 5 days in “in vitro” above 50 µM. Also, the negative logarithm of the EC50 (pEC50) in the data set with HIV-1 (NL4-3 strain) is 5.82.
Consider `CN1/C(=C/c2cccc3[n+]2CCCc2ccc4c(c2-3)-c2cccc(/C=C3\Sc5ccccc5N3C)[n+]2CCC4)Sc2ccccc21` [Compound 10], for which the “effect on virus adsorption” value with HIV-1 [1] is on record as “inhibited neither adsorption nor replication, or their effect was weak”. This compound returned a CC50 at 5 days in “in vitro” above 50 µM. In the data set with HIV-1 (NL4-3 strain), this compound had a pEC50 of 5.66. The “effect on viral replication” value in the data set on HIV-1 [2] is “inhibited neither adsorption nor replication, or their effect was weak”.
As to `Cc1c(C)c2c(c3c1CC[n+]1ccc(/C=C/c4c[nH]c5ccccc45)cc1-3)-c1cc(/C=C/c3c[nH]c4ccccc34)cc[n+]1CC2` [Compound 18], in the data set with HIV-1 [1], the “effect on virus adsorption” value was “inhibited neither adsorption nor replication, or their effect was weak”. The compound further displayed a CC50 at 5 days in “in vitro” above 50 µM. In the data set on HIV-1 (NL4-3 strain), this compound had a pEC50 of 5.50. Besides, the “effect on viral replication” value in the data set with HIV-1 [2] was “inhibited neither adsorption nor replication, or their effect was weak”.
With `Cc1c(C)c2c(c3c1CC[n+]1ccc(/C=C/c4ccc(N(C)C)cc4)cc1-3)-c1cc(/C=C/c3ccc(N(C)C)cc3)cc[n+]1CC2` [Compound 8], the “effect on virus adsorption” value with HIV-1 [1] was “inhibited adsorption”. This compound displayed a CC50 at 5 days in the data set “in vitro” above 50 µM. In the data set with HIV-1 (NL4-3 strain), the pEC50 was 5.75.
With `C(=C\c1cc2ccccc2[nH]1)/c1cc[n+]2c(c1)-c1c(ccc3c1-c1cccc[n+]1CCC3)CCC2` [Compound 7], in the data set with HIV-1 [1], the “effect on virus adsorption” value was “minimal or no effect on virus adsorption”. In addition, the CC50 at 5 days in the data set “in vitro” was above 50 µM. Moreover, in the data set with HIV-1 (NL4-3 strain), the pEC50 is 5.75. In addition, the “effect on viral replication” value in the data set with HIV-1 [2] is “significantly impairing viral replication”.
As for `Cn1c(/C=C/c2cccc3[n+]2CCc2ccc4c(c2-3)-c2cccc(/C=C/c3cc5ccccc5n3C)[n+]2CC4)cc2ccccc21` [Compound 9], in the data set on HIV-1 [1], the “effect on virus adsorption” value is on record as “inhibited adsorption”. Also, the CC50 at 5 days in “in vitro” was above 50 µM. Further, the pEC50 in the data set with HIV-1 (NL4-3 strain) was 5.71.
As for `Cc1c(C)c2c(c3c1CC[n+]1ccc(/C=C/c4ccc5c(c4)CCO5)cc1-3)-c1cc(/C=C/c3ccc4c(c3)CCO4)cc[n+]1CC2` [Compound 5], the “effect on virus adsorption” value with HIV-1 [1] is “inhibited neither adsorption nor replication, or their effect was weak”. The same compound came in with a CC50 at 5 days in the data set “in vitro” above 50 µM. Moreover, the pEC50 with HIV-1 (NL4-3 strain) was 5.78. For the same compound, the “effect on viral replication” value in the data set on HIV-1 [2] is “inhibited neither adsorption nor replication, or their effect was weak”.
With `COc1ccc(/C=C/c2cc[n+]3c(c2)-c2c(c(C)c(C)c4c2-c2cc(/C=C/c5ccc(OC)c6ccccc56)cc[n+]2CC4)CC3)c2ccccc12` [Compound 19], the “effect on virus adsorption” value in the data set on HIV-1 [1] is “inhibited neither adsorption nor replication, or their effect was weak”. In the data set “in vitro”, this compound came in with a half-maximal cytotoxic concentration (CC50) at 5 days above 50 µM. In the data set with HIV-1 (NL4-3 strain), this compound gave a pEC50 of 5.47. In addition, the “effect on viral replication” value in the data set on HIV-1 [2] is recorded as “inhibited neither adsorption nor replication, or their effect was weak”.
For the compound `COc1ccc(/C=C/c2cc[n+]3c(c2)-c2c(c(C)c(C)c4c2-c2cc(/C=C/c5ccc(OC)cc5OC)cc[n+]2CC4)CC3)c(OC)c1` [Compound 13], the “effect on virus adsorption” value with HIV-1 [1] is “inhibited neither adsorption nor replication, or their effect was weak”. The CC50 at 5 days in the data set “in vitro” is above 50 µM. In addition, the pEC50 in the data set on HIV-1 (NL4-3 strain) is 5.57. The “effect on viral replication” value in the data set with HIV-1 [2] is listed as “inhibited neither adsorption nor replication, or their effect was weak”.
As for `Cc1c(C)c2c(c3c1CC[n+]1ccc(/C=C/c4ccc(-c5ccccc5)s4)cc1-3)-c1cc(/C=C/c3ccc(-c4ccccc4)s3)cc[n+]1CC2` [Compound 11], the “effect on virus adsorption” value in the data set with HIV-1 [1] is reported as “inhibited adsorption”. For the same compound, the CC50 at 5 days in the data set “in vitro” was above 50 µM. In the data set with HIV-1 (NL4-3 strain), this compound gave a pEC50 of 5.58.
On to `CN1/C(=C/c2cc3[n+](c4ccccc24)CCCc2ccc4c(c2-3)-c2cccc[n+]2CCC4)Sc2ccccc21` [Compound 2], for which the “effect on virus adsorption” value in the data set with HIV-1 [1] is “inhibited adsorption”. This compound showed a CC50 at 5 days in the data set “in vitro” of 24.4 µM. The same compound had a pEC50 with HIV-1 (NL4-3 strain) above 6.00.
On to `Cc1c(C)c2c(c3c1CC[n+]1ccc(/C=C/c4c5ccccc5c(C)c5ccccc45)cc1-3)-c1cc(/C=C/c3c4ccccc4c(C)c4ccccc34)cc[n+]1CC2` [Compound 1], for which the “effect on virus adsorption” value with HIV-1 [1] is on record as “inhibited neither adsorption nor replication, or their effect was weak”. The compound further gave a half-maximal cytotoxic concentration (CC50) at 5 days in “in vitro” above 50 µM. Further, in the data set with HIV-1 (NL4-3 strain), the pEC50 was above 6.00. The “effect on viral replication” value in the data set on HIV-1 [2] was “inhibited neither adsorption nor replication, or their effect was weak”.

For the origin of these results see publication PMC10102027, “Helquat dyes targeting G-quadruplexes as a new class of anti-HIV-1 inhibitors” (Scientific Reports, 2023).
